Measured values from US8129361B2, “Amine compound and pharmaceutical use thereof” (Mitsubishi Tanabe Pharma Corporation, priority 2007, dated 2012).

Assays:
Type in all cases: in vivo
[1] = test system: peripheral blood lymphocyte number; experiment: Peripheral blood lymphocyte number decreasing action in mouse; conditions: ip, male BALB/cAnNCrj mice, intraperitoneal, 24 hr after administration, read-out: ED50 (dose necessary for reducing the lymphocyte count of the vehicle group (100%) by 50%)
[2] = test system: heart rate in rat; experiment: Action on heart rate in rat (telemetry, oral administration); conditions: male Crl:CD(SD) rats, up to the dose of 10 mg/kg body weight, measured to 24 hr after administration
Protocol: Action on Heart Rate in Rat
Male Crl:CD(SD) rats were anesthetized by intraperitoneal administration of Nembutal (manufactured by Dainippon Sumitomo Pharma Co., Ltd.), and a pressure sensor connected to a telemetry transmitter (TL11M2-C50-PTX, manufactured by Data Sciences International) was inserted into the abdominal aorta and a transmitter was subcutaneously placed in the abdomen. The blood pressure and heart rate data were recorded by an analysis software (Dataquest A.R.T., manufactured by Data Sciences International) via a receiver (RPC-1, manufactured by Data Sciences International). After confirmation of recovery of circadian rhythm of the heart rate, the rats were subjected to the experiment. The compound of the present invention was suspended in 0.5% hydroxypropylmethylcellulose (manufactured by Shin-Etsu Chemical Co., Ltd.) and orally administered. The heart rate was measured from 72 hr before the administration to 24 hr after the administration.

[3] = test system: peripheral blood lymphocyte number; experiment: Peripheral blood lymphocyte number decreasing action in rat; conditions: male F344 rats, oral, 24 hr after administration, read-out: ED50 (dose necessary for reducing the lymphocyte count of the vehicle group (100%) by 50%)

Which results are given for C[C@](N)(CO)CCc1ccc(OCCCc2ccc(Cl)c(Cl)c2)c(C(F)(F)F)c1.Cl [Compound 204-1, (R)-2-amino-4-{4-[3-(3,4-dichlorophenyl)propoxy]-3-trifluoromethylphenyl}-2-methylbutanol hydrochloride]?
ED50 [1]: 0.005 mg/kg; Effect on heart rate [2]: did not reduce the heart rate; ED50 [3]: 0.03 mg/kg
